From EP2141163A1, “Substituted thiazolidinones, their production and utilisation as medicine” (Bayer Schering Pharma Aktiengesellschaft, priority 2008, dated 2010)

Legend:
PLK-1 = target: T1, PLK-1 (Homo sapiens, UniProt P53350); test: PLK-1 enzyme assay at 10 mM ATP (indirect HTRF assay); type: biochemical; details: read-out: Inhibition PLK-1 IC50 [M] (10 mM ATP)
T1 construct: Fusionsprotein bestehend aus GST und Plk (Kinase Domäne 33-345; MW 36 kDa, conc 0,8 µg/µl); GST; made in house; host or cells: Hi5 insect cells
T1 sequence (P53350 33-345): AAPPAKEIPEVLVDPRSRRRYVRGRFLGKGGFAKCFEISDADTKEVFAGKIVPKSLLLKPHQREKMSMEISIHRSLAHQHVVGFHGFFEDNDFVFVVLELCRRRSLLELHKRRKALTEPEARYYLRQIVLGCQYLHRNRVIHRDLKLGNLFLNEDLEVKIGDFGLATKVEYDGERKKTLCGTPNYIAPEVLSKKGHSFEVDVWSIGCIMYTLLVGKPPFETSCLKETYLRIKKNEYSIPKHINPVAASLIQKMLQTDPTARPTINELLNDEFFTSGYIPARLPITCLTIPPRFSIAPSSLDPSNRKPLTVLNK
Protocol: PLK Enzym-Assay (10 mM ATP)
Für den Kinaseassay wird aus Insektenzellen (Hi5) exprimiertes, durch Glutathion-Sepharose-Affinitätschromatographie und anschließender Gel-filtration (Suerdex 75) gereinigtes rekombinantes Fusionsprotein bestehend aus GST und Plk (Kinase Domäne 33-345; MW 36 kDa, conc 0,8 µg/µl) verwendet. Aliqots hiervon werden in flüssigem Stickstoff weggefroren und bei -80°C gelagert und nach dem Auftauen nur einmal verwendet.
Bei dem verwendeten Assay handelt es sich um einen indirekten HTRF-Assay, bei dem folgende Materialien und Verfahrensweisen zum Einsatz kamen. Als Substrat für die Kinasereaktion wird das biotinylierte Peptid Btn-Ahx-KKLNRTLSFAEPG-Amid x TFA, von Biosyntan, Probennr.: 6178.1 (C-Terminus in Amidform) verwendet. Hierbei handelt es sich um eine artifizielle Sequenz, die von keinem bekannten Protein abgeleitet wurde.
50 nl der in 100% Dimethylsulfoxid (DMSO) gelösten Testverbindungen (Endkonzentrationen : 0 µM und Konzentrationen im Bereich von 0,001 - 20 µM) werden mit 2 µl Enzym Arbeitslösung (0,039 ng/µl Plk-1 im Arbeitspuffer [25 mM MgCl2; 1mM DTT; 50 mM Hepes pH 7,0; 0,01% NP40; 1x Complete; 0,05% BSA] für 30 min vorinkubiert. Anschließend wird die Kinase-Reaktion durch Zugabe von 3 µl Substratlösung [16,7 mM Adenosintriphosphate (ATP) und 1,4 µM Substratpeptid (Biotin-Ttds- KKLNRTLSFAEPG -NH2)] in Arbeitspuffer gestartet, und nach 30 min durch Zugabe einer Abstopp-Lösung (100 mM EDTA, 100 mM Hepes pH 7,5, 800 mM Potassiumfluoride, 0,12% BSA, 0,4 µM SA-XLent (0,05 µM, von CIS bio international, Marcoule, Frankreich), Eu^3+ Cryptate-conjugated Rabbit anti-Mouse IgG (1,5 nM; ein mit Europiumkryptat markierter Anti-Maus-IgG-Antikörper von CIS bio international, Marcoule, Frankreich), 1 nM Anti-phospho-Serine Kinase (ein phospho-spezifischer Antikörper von Upstate Biotechnology, Dundee, Schottland), gestoppt, und bei 4°C über Nacht inkubiert. Danach wird die Menge des phosphorylierten Substratpeptids durch Messung des Resonanzenergietransfers vom Europium-markierten Antikörperkomplex zum Streptavidine-XLent bestimmt. Zu diesem Zweck wird die Fluoreszenzemission bei 620 nm und 665 nm nach Anregung bei 350 nm in einem HTRF-Messgerät, z. B. Rubystar (BMG Labtechnologies, Offenburg, Deutschland) oder Viewlux (Perkin-Elmer), bestimmt. Das Verhältnis der Emissionen bei 665 nm und bei 620 nm wird als Maß für die Menge des phosphorylierten Substratpeptids verwendet. Die Daten werden normalisiert (Enzymreaktion ohne Inhibitor = 0 % Inhibition, alle anderen Assaykomponenten, aber kein Enzym = 100 % Inhibition), und IC50-Werte werden durch einen 4 Parameter-Fit mit einer hauseigenen Software berechnet.

MCF-7 = test: Proliferation assay (crystal violet staining), MCF-7; type: cell-based, human; details: Homo sapiens, MCF7, 96 h, tumour cell proliferation, 4 days incubation, read-out: Inhibition IC50 [M] (MCF-7)
Protocol: (§1) Kultivierte humane Tumorzellen (MCF7, […] menschliche Mammakarzinomazellen, bezogen von ATCC HTB22; NCI-H460, menschliche nicht kleinzellige Lungenkarzinomazellen, ATCC HTB-177; DU 145, hormonunabhängige menschliche Prostatakarzinomazellen, ATCC HTB-81; HeLa-MaTu, humane Cervixkarzinomazellen, bezogen von EPO-GmbH, Berlin,) werden in einer Dichte von 5000 (MCF7, DU145) bzw. 3000 (NCI-H460, HeLa-MaTu) Zellen/Messpunkt in einer 96-Loch Multititerplatte in 200 µl des entsprechenden Wachstumsmediums ausplattiert. Nach 24 Stunden werden die Zellen einer Platte (Nullpunkt-Platte) mit Kristallviolett gefärbt (s.u.), während das Medium der anderen Platten durch frisches Kulturmedium (200 µl), dem die Testsubstanzen in verschiedenen Konzentrationen (0 µM, sowie im Bereich 0,01 - 30 µM; die finale Konzentration des Lösungsmittels Dimethylsulfoxid beträgt 0,5%) zugesetzt sind, ersetzt. Die Zellen werden für 4 Tage in Anwesenheit der Testsubstanzen inkubiert. Die Zellproliferation wird durch Färbung der Zellen mit Kristallviolett bestimmt: Die Zellen werden durch Zugabe von 20 µl/Messpunkt einer 11%igen Glutaraldehyd-Lösung 15 min bei Raumtemperatur fixiert. Nach dreimaligem Waschen der fixierten Zellen mit Wasser werden die Platten bei Raumtemperatur getrocknet. Die Zellen werden durch Zugabe von 100 µl/Messpunkt einer 0,1%igen Kristallviolett-Lösung (pH durch Zugabe von Essigsäure auf pH3 eingestellt) gefärbt. Nach dreimaligem Waschen der gefärbten Zellen mit Wasser werden die Platten bei Raumtemperatur getrocknet. Der Farbstoff wird durch Zugabe von 100 µl/Messpunkt einer 10%igen Essigsäure-Lösung gelöst. Die Extinktion wird photometrisch bei einer Wellenlänge von 595 nm bestimmt. Die prozentuale Änderung des Zellwachstums wird durch Normalisierung der Messwerte auf die Extinktionwerte der Nullpunktplatte (=0%) und die Extinktion der unbehandelten (0 µM) Zellen (=100%) berechnet. IC50-Werte werden nach einer 4-Parameterkurvenanpassung mit Hilfe eines Firmeneigenen Computerprogramms berechnet.

DU145 = test: Proliferation assay (crystal violet staining), DU145; type: cell-based, human; details: Homo sapiens, DU-145, 96 h, tumour cell proliferation, 4 days incubation, read-out: Inhibition IC50 [M] (DU145)
Protocol: as §1

NCI-H460 = test: Proliferation assay (crystal violet staining), NCI-H460; type: cell-based, human; details: Homo sapiens, 96 h, tumour cell proliferation, 4 days incubation, read-out: Inhibition IC50 [M] (NCI-H460)
Protocol: as §1

SMILES	IC50 (PLK-1) [M]	IC50 (MCF-7) [M]	IC50 (DU145) [M]	IC50 (NCI-H460) [M]
CCn1c(=C(C#N)C(=O)NCC(F)(F)F)sc(=CNc2ccc3ccn(C4CCN(CC(N)=O)CC4)c3c2)c1=O [B71]	8.2e-09	1.4e-07	1.2e-07	2.1e-07
CCN1CCCC1Cn1ccc2ccc(NC=c3sc(=C(C#N)C(=O)NCC(F)(F)F)n(CC)c3=O)cc21 (centres unmarked) [B58]	2e-08	3.7e-07	3.2e-07	4.8e-07
